{
  "source": "patent US7132425B2",
  "about": "“5-substituted-six-membered heteroaromatic glucokinase activators” (Hoffmann-La Roche Inc., priority 2002, dated 2006)",
  "data": [
    {"tested_on": "C57BL/6J mice", "assay": "Glucokinase activator in vivo screen (blood glucose after oral dosing)", "conditions": "oral gavage 50 mg/kg after two hour fast, readings 1, 2, 4 and 6 hours post dose, p≦0.05 for two consecutive assay time points", "protocol": "Glucokinase Activator in vivo Screen Protocol: C57BL/6J mice are orally dosed via gavage with Glucokinase (GK) activator at 50 mg/kg body weight following a two hour fasting period. Blood glucose determinations are made five times during the six hour post-dose study period.\nMice (n=6) are weighed and fasted for a two hour period prior to oral treatment.", "values": [
      {"smiles": "CS(=O)(=O)c1ccc([C@@H](CC2CCCC2)C(=O)Nc2cnc([C@H](O)CO)cn2)cc1Cl", "note": "[Example 54, 2(R)-(3-Chloro-4-methanesulfonyl-phenyl)-3-cyclopentyl-N-[5-(1(S),2-dihydroxy-ethyl)-pyrazin-2-yl]-propionamide]", "decrease in blood glucose compared to vehicle": "statistically significant (p≦0.05) decrease in blood glucose"},
      {"smiles": "CS(=O)(=O)c1ccc([C@@H](CC2CCCC2)C(=O)Nc2cnc([C@@H](O)CO)cn2)cc1Cl", "note": "[Example 55]", "decrease in blood glucose compared to vehicle": "statistically significant (p≦0.05) decrease in blood glucose"},
      {"smiles": "C/C(=N/O)c1cnc(NC(=O)[C@H](CC2CCCC2)c2ccc(S(C)(=O)=O)c(Cl)c2)cn1", "note": "[Example 28, 2(R)-(3-Chloro-4-methanesulfonyl-phenyl)-3-cyclopentyl-N-[5-(1-(Z)-hydroxyimino-ethyl)-pyrazin-2-yl]-propionamide]", "decrease in blood glucose compared to vehicle": "statistically significant (p≦0.05) decrease in blood glucose"},
      {"smiles": "Cc1cc([C@@H](CC2CCCC2)C(=O)Nc2cnc(C#CC(C)(C)O)cn2)ccc1S(C)(=O)=O", "note": "[Example 57, 3-Cyclopentyl-N-[5-(3-hydroxy-3-methyl-but-1-ynyl)-pyrazin-2-yl]-2(R)-(4-methanesulfonyl-3-methyl-phenyl)-propionamide]", "decrease in blood glucose compared to vehicle": "statistically significant (p≦0.05) decrease in blood glucose"},
      {"smiles": "CS(=O)(=O)c1ccc([C@@H](CC2CCCC2)C(=O)Nc2cnc(CCC3(O)CCOCC3)cn2)cc1Cl", "note": "[Example 51, 2(R)-(3-Chloro-4-methanesulfonyl-phenyl)-3-cyclopentyl-N-[5-(4-hydroxy-tetrahydropyran-4-yl-ethyl)-pyrazin-2-yl]-propionamide]", "decrease in blood glucose compared to vehicle": "statistically significant (p≦0.05) decrease in blood glucose"},
      {"smiles": "CS(=O)(=O)c1ccc([C@@H](CC2CCCC2)C(=O)Nc2cnc(NCCO)cn2)cc1Cl", "note": "[Example 73, 2(R)-(3-Chloro-4-methanesulfonyl-phenyl)-3-cyclopentyl-N-[5-(2-hydroxy-ethylamino)-pyrazin-2-yl]-propionamide]", "decrease in blood glucose compared to vehicle": "statistically significant (p≦0.05) decrease in blood glucose"},
      {"smiles": "CC(C)(O)C#Cc1cnc(NC(=O)[C@H](CC2CCCC2)c2ccc(S(C)(=O)=O)cc2)cn1", "note": "[Example 61, 3-Cyclopentyl-2(R)-(4-methanesulfonyl-phenyl)-N-[5-(3-hydroxy-3-methyl-but-1-ynyl)-pyrazin-2-yl]-propionamide]", "decrease in blood glucose compared to vehicle": "statistically significant (p≦0.05) decrease in blood glucose"},
      {"smiles": "CS(=O)(=O)c1ccc([C@@H](CC2CCCC2)C(=O)Nc2cnc(C3OCCO3)cn2)cc1Cl", "note": "[Example 41, 2(R)-(3-Chloro-4-methanesulfonyl-phenyl)-3-cyclopentyl-N-(5-[1,3]dioxolan-2-yl-pyrazin-2-yl)-propionamide]", "decrease in blood glucose compared to vehicle": "statistically significant (p≦0.05) decrease in blood glucose"},
      {"smiles": "CS(=O)(=O)c1ccc([C@@H](CC2CCCC2)C(=O)Nc2ccc(C3CCCO3)cn2)cc1Cl", "note": "(stereo partly drawn) [Example 69, 2(R)-(3-Chloro-4-methanesulfonyl-phenyl)-3-cyclopentyl-N-[5-(tetrahydro-furan-2-yl)-pyridin-2-yl]-propionamide]", "decrease in blood glucose compared to vehicle": "statistically significant (p≦0.05) decrease in blood glucose"},
      {"smiles": "CN(C)CCCc1cnc(NC(=O)[C@H](CC2CCCC2)c2ccc(S(C)(=O)=O)c(Cl)c2)cn1", "note": "[Example 16, 2(R)-(3-Chloro-4-methanesulfonyl-phenyl)-3-cyclopentyl-N-[5-(3-dimethylamino-propyl)-pyrazin-2-yl]-propionamide]", "decrease in blood glucose compared to vehicle": "statistically significant (p≦0.05) decrease in blood glucose"},
      {"smiles": "COCC#Cc1cnc(NC(=O)[C@H](CC2CCCC2)c2ccc(S(C)(=O)=O)c(Cl)c2)cn1", "note": "[Example 47, 2(R)-(3-Chloro-4-methanesulfonyl-phenyl)-3-cyclopentyl-N-[5-(3-methoxy-prop-1-ynyl)-pyrazin-2-yl]-propionamide]", "decrease in blood glucose compared to vehicle": "statistically significant (p≦0.05) decrease in blood glucose"},
      {"smiles": "CS(=O)(=O)c1ccc([C@@H](CC2CCCC2)C(=O)Nc2cnc(-c3ccco3)cn2)cc1Cl", "note": "[Example 70, 2(R)-(3-Chloro-4-methanesulfonyl-phenyl)-3-cyclopentyl-N-(5-furan-2-yl-pyrazin-2-yl)-propionamide]", "decrease in blood glucose compared to vehicle": "statistically significant (p≦0.05) decrease in blood glucose"},
      {"smiles": "CN(C)CC#Cc1cnc(NC(=O)[C@H](CC2CCCC2)c2ccc(S(C)(=O)=O)c(Cl)c2)cn1", "note": "[Example 11, 2(R)-(3-Chloro-4-methanesulfonyl-phenyl)-3-cyclopentyl-N-[5-(3-dimethylamino-prop-1-ynyl)-pyrazin-2-yl]-propionamide]", "decrease in blood glucose compared to vehicle": "statistically significant (p≦0.05) decrease in blood glucose"},
      {"smiles": "Cc1cc([C@@H](CC2CCCC2)C(=O)Nc2cnc([C@H](O)CO)cn2)ccc1S(C)(=O)=O", "note": "[Example 58, 3-Cyclopentyl-N-[5-1(S),2-dihydroxy-ethyl]-2(R)-(4-methanesulfonyl-3-methyl)-propionamide]", "decrease in blood glucose compared to vehicle": "statistically significant (p≦0.05) decrease in blood glucose"},
      {"smiles": "Cc1cc([C@@H](CC2CCCC2)C(=O)Nc2cnc(C#CC3(O)CCOCC3)cn2)ccc1S(C)(=O)=O", "note": "[Example 59, 3-Cyclopentyl-N-[5-(4-hydroxy-tetrahydro-pyran-4-ylethynyl)-pyrazin-2-yl]-2(R)-(4-methanesulfonyl-3-methyl-phenyl)-propionamide]", "decrease in blood glucose compared to vehicle": "statistically significant (p≦0.05) decrease in blood glucose"},
      {"smiles": "COC(OC)c1cnc(NC(=O)[C@H](CC2CCCC2)c2ccc(S(C)(=O)=O)c(Cl)c2)cn1", "note": "[Example 21, 2(R)-(3-Chloro-4-methanesulfonyl-phenyl)-3-cyclopentyl-N-(5-dimethoxymethyl-pyrazin-2-yl)-propionamide]", "decrease in blood glucose compared to vehicle": "statistically significant (p≦0.05) decrease in blood glucose"},
      {"smiles": "CS(=O)(=O)c1ccc([C@@H](CC2CCCC2)C(=O)Nc2cnc(C3=CCCCO3)cn2)cc1Cl", "note": "[Example 75, 2(1R)-(3-Chloro-4-methanesulfonyl-phenyl)-3-cyclopentyl-N-[5-(5,6-dihydro-4H-pyran-2-yl)-pyrazin-2-yl]-propionamide]", "decrease in blood glucose compared to vehicle": "statistically significant (p≦0.05) decrease in blood glucose"},
      {"smiles": "CS(=O)(=O)c1ccc([C@@H](CC2CCCC2)C(=O)Nc2cnc(OCCO)cn2)cc1Cl", "note": "[Example 62, 2(R)-(3-Chloro-4-methanesulfonyl-phenyl)-3-cyclopentyl-N-[5-(2-hydroxy-ethoxy)-pyrazin-2-yl]-propionamide]", "decrease in blood glucose compared to vehicle": "statistically significant (p≦0.05) decrease in blood glucose"},
      {"smiles": "COCCOc1cnc(NC(=O)[C@H](CC2CCCC2)c2ccc(S(C)(=O)=O)c(Cl)c2)cn1", "note": "[Example 43, 2(R)-(3-Chloro-4-methanesulfonyl-phenyl)-3-cyclopentyl-N-5-(2-methoxyethoxy-pyrazin-2-yl)-propionamide]", "decrease in blood glucose compared to vehicle": "statistically significant (p≦0.05) decrease in blood glucose"},
      {"smiles": "CS(=O)(=O)c1ccc([C@@H](CC2CCCC2)C(=O)Nc2cnc(C#CC3(O)CCOCC3)cn2)cc1", "note": "[Example 46, 3-Cyclopentyl-N-5-[(4-hydroxy-tetrahydropyran-4-yl-ethynyl)pyrazin-2-yl]-2(R)-(4-methanesulfonyl-phenyl)-propionamide]", "decrease in blood glucose compared to vehicle": "statistically significant (p≦0.05) decrease in blood glucose"},
      {"smiles": "CS(=O)(=O)c1ccc([C@@H](CC2CCCC2)C(=O)Nc2cnc(C#CCO)cn2)cc1Cl", "note": "[Example 10, 2(R)-(3-Chloro-4-methanesulfonyl-phenyl)-3-cyclopentyl-N-[5-(3-hydroxy-prop-1-ynyl)-pyrazin-2-yl]-propionamide]", "decrease in blood glucose compared to vehicle": "statistically significant (p≦0.05) decrease in blood glucose"},
      {"smiles": "CS(=O)(=O)c1ccc([C@@H](CC2CCCC2)C(=O)Nc2cnc(C(O)C#N)cn2)cc1Cl", "note": "(stereo partly drawn) [Example 26, 2(R)-(3-Chloro-4-methanesulfonyl-phenyl)-N-[5-(cyano-hydroxy-methyl)-pyrazin-2-yl]-3-cyclopentyl-propionamide]", "decrease in blood glucose compared to vehicle": "statistically significant (p≦0.05) decrease in blood glucose"},
      {"smiles": "CC(=O)c1cnc(NC(=O)C(CC2CCCC2)c2ccc(S(C)(=O)=O)c(Cl)c2)cn1", "note": "(stereo not drawn) [Example 23, N-(5-Acetyl-pyrazin-2-yl)-2-(3-chloro-4-methanesulfonyl-phenyl)-3-cyclopentyl-propionamide]", "decrease in blood glucose compared to vehicle": "statistically significant (p≦0.05) decrease in blood glucose"},
      {"smiles": "CS(=O)(=O)c1ccc([C@@H](CC2CCCC2)C(=O)Nc2cnc(C#CCCO)cn2)cc1Cl", "note": "[Example 53, 2(R)-(3-Chloro-4-methanesulfonyl-phenyl)-3-cyclopentyl-N-[5-(4-hydroxy-but-1-ynyl)-pyrazin-2-yl]-propionamide]", "decrease in blood glucose compared to vehicle": "statistically significant (p≦0.05) decrease in blood glucose"},
      {"smiles": "CS(=O)(=O)c1ccc(C(CC2CCCC2)C(=O)Nc2cnc(C=O)cn2)cc1Cl", "note": "(stereo not drawn) [Example 18, 2-(3-Chloro-4-methanesulfonyl-phenyl)-3-cyclopentyl-N-(5-formyl-pyrazin-2-yl)-propionamide]", "decrease in blood glucose compared to vehicle": "statistically significant (p≦0.05) decrease in blood glucose"},
      {"smiles": "CS(=O)(=O)c1ccc(C(CC2CCCC2)C(=O)Nc2cnc(CC3SC(=O)NC3=O)cn2)cc1Cl", "note": "(stereo not drawn) [Example 19, 2-(3-Chloro-4-methanesulfonyl-phenyl)-3-cyclopentyl-N-[5-(2,4-dioxo-thiazolidin-5-ylmethyl)-pyrazin-2-yl]-propionamide]", "decrease in blood glucose compared to vehicle": "statistically significant (p≦0.05) decrease in blood glucose"}
    ]},
    {"tested_on": "not given", "assay": "not given", "conditions": "not given", "units": {"melting point": "°C"}, "values": [
      {"smiles": "CSCc1cnc(NC(=O)C(CC2CCCC2)c2ccc(S(C)(=O)=O)c(Cl)c2)cn1", "note": "(stereo not drawn) [Example 30, 2-(3-Chloro-4-methanesulfonyl-phenyl)-3-cyclopentyl-N-(5-methylsulfanylmethyl-pyrazin-2-yl)-propionamide]", "melting point": "70 to 75"}
    ]}
  ]
}
